Experiments:
[1] = Validation stability of TFV and TFVDP in spiked whole blood and sample extracts; assay type: in vitro ADME; settings: for Stability, Sample extracts 24 h 10 °C: autosampler; for Stability, Sample extracts 24 h 10 °C / Stability, Blood 4 h room temp. / Stability, Blood freeze-thaw 5 cycles / Stability, Blood at −30 °C for 1 month: the values are: stability, % of nominal; for Stability, Blood at −30 °C for 1 month: blood diluted 1:5 with 1.25% ammonia
Method: Samples were stable for 1 month at −30 °C, for 5 freeze–thaw cycles and for 24 h at 10 °C in the autosampler. Benchtop stability was evaluated for 4 h at room temperature with blood samples spiked with TFVDP only and the results were within 96.9 and 104.714 from nominal in stabilized conditions, while in the absence of the phosphatase inhibitor the degradation was, on average, 85% at all tested concentrations. Calibration curves were linear for both TFV and TFVDP, with correlation coefficients > 0.995.
Spiked calibration standards (CC) and quality control (QC) samples were prepared in whole blood diluted 1:5 with ultrapure water containing 1.25% ammonia (v/v). TFV concentrations were as follows: 0–0.25–1–4–16–64–128–256 ng/mL (CC) and 0.75–15–210 ng/mL (QC Low, Medium and High, respectively). TFVDP concentrations were as follows: 0–0.5–2–8–32–128–256–512 ng/mL (CC) and 1.5–30–420 ng/mL (QC Low, Medium and High, respectively).
Blank blood was frozen at −80 °C before use; therefore, cells were lysed. CCs and QCs were built in blood diluted 1 + 4 with water and alkalinized with 1.25% ammonia, for phosphatases inhibition. Patient samples received identical treatment before undergoing the sample preparation protocol, ensuring uniform composition across samples.
The method for quantifying TFV and TFVDP in whole blood was validated in terms of selectivity, linearity, accuracy, precision, limits of quantification, sample stability under storage and processing conditions, extraction recovery, and matrix effects, in accordance with the April 2022 ICH guidelines, subsequently adopted by the FDA in November 2022 [38]. The analytical ranges to be validated were chosen based upon the expected concentrations as found in literature and from in-house preliminary experiments. Matrix effects were evaluated comparing the signal of theoretical QC concentrations prepared in mobile phase (taken as 100% recovery) against those obtained after spiking blank extracts at identical concentrations. Matrix factors were calculated for each analyte, and isotope-labelled internal standards were employed to correct for residual matrix influence.

[2] = TFV and TFVDP levels in clinical samples (whole blood, plasma) of treated patients by micro-LC-MS/MS; assay type: in vivo; settings: patient 10, tenofovir alafenamide 25 mg, 12 to 24 h after dosing
Method: Blood samples were collected, with informed consent, from 11 HIV-infected patients treated with tenofovir, 12 to 24 h after dosing. Two patients (numbers 10 and 11) received tenofovir alafenamide 25 mg, the others being administered with tenofovir disoproxil fumarate 245 mg.
Blood samples were collected from HIV-positive patients at the National Institute for Infectious Diseases “Prof Dr. Matei Bals”, with the approval of the Bioethical Committee (protocol code C10242/02.10.2024, approved 18 October 2024). All patients were under treatment with anti-retroviral drugs, and sampling was performed from 12 to 24 h after dosing.
Blood samples (4 mL each) were collected using potassium EDTA (sampling tubes EDTAK3, 4.0 mL, Englober SRL, Brasov, Romania) or sodium citrate (9NC sampling tubes, BD, Plymouth, UK) as anticoagulants. Aliquots of 0.5 mL were used for plasma separation, by centrifugation (5 min, 3900 rpm), within 60 min from sampling. […] All samples were frozen at −30 °C until analyzed. […]
Analyses were performed in positive electrospray ionization mode. The chromatographic trace 288.054/176.0 was used for TFV quantification, while TFVDP was monitored on the trace 447.942/176.0. Mass transitions 288.054/135.9 and 447.942/270.0 were also used for confirmation of the measured compounds. […]

[3] = TFVDP stability in blood spiked without stabilizers (degradation by phosphatases); assay type: in vitro ADME; settings: degrades to TFVMP and TFV
Method: A series of experiments was conducted to evaluate this degradation by phosphatases and counteract it. TFVDP only (1 or 2 µg/mL) was added to blood or plasma; 50 µL aliquots were extracted in the presence of isotope-labeled internal standards, and the formation of TFV and […] was monitored, together with TFVDP degradation. […] The extent of the phenomenon is illustrated in Figure 3. The first attempt to reduce phosphatases activity was performing all the sample preparation procedures on ice bath. No significant improvement was observed.
Figure 3 Extracted ion chromatograms overlay (A) recorded on the MRM transitions of TFV (B), TFVMP (C) and TFVDP (D) and their corresponding deuterated internal standards in an extracted sample (as described in paragraph 3.5). Blood sample diluted 1:5 with water and spiked with 520 ng/mL TFVDP in a non-stabilized sample (left) and with phosphatases inhibition (right). High peaks of TFMP were observed only after a short time (30 min) at room temperature without enzyme inhibition.

[4] = design: method as in PMID 21118913, PMID 30137238, PMID 25065857; settings: in red blood cells (RBC); cited from earlier work
[5] = QC High (n = 4; TFV 210, TFVDP 420 ng/mL)
[6] = QC Low (n = 4; TFV 0.75, TFVDP 1.5 ng/mL)

In the case of `C[C@H](Cn1cnc2c(N)ncnc21)OCP(=O)(O)O` [TFV, Tenofovir], the Stability, Sample extracts 24 h 10 °C ([1]; QC High (n = 4)) is reported as 90.7%, the Stability, Blood 4 h room temp. ([1]; QC High (n = 4)) is reported as 101% and the Stability, Blood freeze-thaw 5 cycles ([1]; QC High (n = 4)) is reported as 111%. For the same compound, the Stability, Blood at −30 °C for 1 month [1, 5] was 112%, the Stability, Sample extracts 24 h 10 °C ([1]; QC Low (n = 4)) was 94.4% and the Stability, Blood 4 h room temp. ([1]; QC Low (n = 4)) was 102%. For the same compound, the Stability, Blood freeze-thaw 5 cycles ([1]; QC Low (n = 4)) was 114%, the Stability, Blood at −30 °C for 1 month [1, 6] was 104% and the “Level in clinical sample, Blood” value [2] was “BLQ”.

With `C[C@H](Cn1cnc2c(N)ncnc21)OCP(=O)(O)OP(=O)(O)OP(=O)(O)O` [TFVDP, tenofovir diphosphate] the “Stability of added diphosphate metabolite in blood” value [3] was “unstable in blood”, the “Degradation in the absence of the phosphatase inhibitor” value ([1]; 4 h at room temperature, blood spiked with TFVDP only, average at all tested concentrations) was 85% and the Stability, Sample extracts 24 h 10 °C ([1]; QC High (n = 4)) was 94.3%. It also gave a Stability, Blood 4 h room temp. ([1]; QC High (n = 4)) of 96.9%, a Stability, Blood freeze-thaw 5 cycles ([1]; QC High (n = 4)) of 95.4% and a Stability, Blood at −30 °C for 1 month [1, 5] of 106%. It also gave a Stability, Sample extracts 24 h 10 °C ([1]; QC Low (n = 4)) of 105%, a Stability, Blood 4 h room temp. ([1]; QC Low (n = 4)) of 105% and a Stability, Blood freeze-thaw 5 cycles ([1]; QC Low (n = 4)) of 111%. For the same compound, the Stability, Blood at −30 °C for 1 month [1, 6] was 92.5% and the half-life [4] was 17 days.

Source: publication PMC12195941, “Novel Micro-LC-MS/MS Method for the Quantification of Tenofovir and Its Active Metabolite Tenofovir-Diphosphate in Biological Matrices for Therapeutic Drug Monitoring” (Pharmaceuticals, 2025)
